Target: T1, Protein mono-ADP-ribosyltransferase TIPARP (Homo sapiens, UniProt Q7Z3E1)
T1 sequence (Q7Z3E1 whole entry): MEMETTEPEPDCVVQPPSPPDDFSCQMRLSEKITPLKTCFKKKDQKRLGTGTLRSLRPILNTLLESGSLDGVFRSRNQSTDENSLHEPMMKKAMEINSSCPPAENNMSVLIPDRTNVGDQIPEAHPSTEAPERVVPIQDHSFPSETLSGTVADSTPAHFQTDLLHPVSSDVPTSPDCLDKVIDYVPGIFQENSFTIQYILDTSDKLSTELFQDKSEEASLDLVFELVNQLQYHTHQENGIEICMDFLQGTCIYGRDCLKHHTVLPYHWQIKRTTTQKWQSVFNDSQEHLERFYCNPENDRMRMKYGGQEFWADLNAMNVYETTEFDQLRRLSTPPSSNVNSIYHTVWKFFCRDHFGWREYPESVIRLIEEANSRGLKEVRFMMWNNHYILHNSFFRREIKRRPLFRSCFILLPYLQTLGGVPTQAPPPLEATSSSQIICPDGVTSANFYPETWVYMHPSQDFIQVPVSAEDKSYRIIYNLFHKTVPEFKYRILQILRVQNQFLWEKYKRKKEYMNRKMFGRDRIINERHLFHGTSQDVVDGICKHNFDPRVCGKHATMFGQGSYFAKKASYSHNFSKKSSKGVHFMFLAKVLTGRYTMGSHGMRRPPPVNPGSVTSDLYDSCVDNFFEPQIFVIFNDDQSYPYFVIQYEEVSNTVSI
Test: Enzymatic Biochemical Assay of PARP
Method: The specific scheme was as follows: the 1× histone mixture was added to a 96-well plate at 50 μL per well, and the plate was incubated overnight at 4° C. The next day, after the plate was washed with PBST, 200 μL of blocking buffer per well was added, and the plate was incubated for 90 min. After the plate was washed with PBST again, 5 μL of inhibitor, 20 μL of 1×PARP buffer and 25 μL of […] were added to each well, and the plate was incubated at room temperature for 30 min. After the plate was washed with PBST, 100 μL of Elisa ECL substrate A and B mixture was added to each well, chemiluminescence value was immediately read using a plate reader, and IC50 values were calculated.

- IC50: < 10 nM
SMILES: C[C@@H](COCc1nn2c(c1Cl)CN(c1cnc(C(F)(F)F)cn1)CC2)Nc1cn[nH]c(=O)c1C(F)(F)F [US20240158406, Compound 14]

Source: BindingDB's records for patent US20240158406 (Chengdu Baiyu Pharmaceutical Co., 2024)
